From patent publication US6413937B1, “Combinations for use in increasing the potency of a substrate for multidrug resistance related protein” (Dublin City University and Enterprise Ireland, priority 1996, dated 2002)

Assays:
DLKP-7 cells = test: adriamycin efflux from loaded cells, HPLC; assay type: cell-based
Protocol: DLKP-7 cells were seeded into 75 cm^2 flasks at 0.5×10^6 cells/10 ml ATCC medium. The cells were left for 2 days, the ATCC medium was removed and fresh medium containing adriamycin (0.5 μg/ml) was added. Following a 2 hour incubation this medium was removed, the flasks were washed twice with PBS, 10 ml ATCC medium or ATCC medium containing the test NSAID was added, and the cells were incubated for a further 4 hr. The cells were trypsinised and the pellet was frozen at −20° C. Duplicate flasks for each time point were prepared. The NSAIDs used were indomethacin 10 μg/ml and piroxicam 20 μg/ml.
The amount of adriamycin in the cells was quantified using liquid-liquid extraction and reverse-phase HPLC analysis. The frozen cell pellets were thawed and resuspended in […] of water/100 μl of 33% silver nitrate and mixed for 5 min. 300 μl of methanol, containing 1.5 μg of daunorubicin as an internal standard (IS), and 1.3 ml of acetonitrile were then added and the tubes mixed for a further 5 min. The mixture was transferred to glass tubes and kept at 4° C. for 1 hr. The tubes were then centrifuged at 1000 g for 15 min. to pellet any solid material. 1.1 ml of the supernatant was removed to HPLC autosampler vials (Labquip, Dublin, Ireland). The solvent was evaporated off at room temperature under a stream of nitrogen gas.
The extract was resuspended in 50 μl of mobile phase 1 (MP1): 32 ml of 0.1 M phosphoric acid mixed with 244 ml of ultrapure water, pH: 2.3 (adjusted upwards with a few drops of 1N potassium hydroxide) to which 124 ml of acetonitrile was added and the final mixture was degassed in a sonicating bath for 5 min. The second mobile phase (MP2) consisted of acetonitrile. The resuspended sample (20 μl) was automatically injected into the HPLC system. The HPLC system comprised a Beckman System Gold 507 autosampler, 125 pump and 166 detector. The MP was pumped through a C18 reversed-phase Prodigy 5 μm particle size ODS-3 column (Phenomenex, Macclesfield, England) (dimensions 150×4.6mm) and absorbance was measured at 253 nm. For the first 14 min. of the chromatographic run MP 1 was pumped at 0.5 ml/min. From 14 min. to 20 min. the column was switched to MP 2. At 20 min. the column was switched back to MP 1 and the flow rate increased to 1 ml/min. At 30 min. the flow rate was brought back to 0.5 ml/min. The run continued for a further 5 min. giving a total run time of 35 min. The amount of adriamycin present was quantified by measuring its peak area and the peak area of the IS. The peak area of the adriamycin was divided by the area of the IS peak and the ratio plotted against a concentration series for spiked adriamycin samples.

OAW42-SR cell line = test: miniaturised in vitro colorimetric cell survival assay, LRP overexpressing OAW42-SR; assay type: cell-based, human; details: alone or + Adriamycin 147 ng/ml
Protocol: (§1) All the results presented in this Example for the DLKP, A549 and OAW42-SR cell lines were derived using the same miniaturised in vitro calorimetric assay system. On Day 1 of the assay 1000 cells/well/100 μl were plated into 96-well plates. Cells were allowed to attach overnight and cell viability was visually assessed. On Day 2 the two drugs (i.e. NSAID plus chemotherapeutic drug) to be analysed were added onto the cells. The individual drugs were added separately in 50 μl quantities (4× stocks, to take into account the dilution effect of having 200 μl final volume in each well). The drugs were left on the cells for five further days (Day 7) and cell number was determined using the acid phosphatase end-point assay which uses p-nitrophenol phosphate as substrate (Martin, A. and Clynes, M. (1991) In Vitro Dev. Biol., 27A, 183-184). On Day 7 the culture medium was removed from the cells and they were washed once with phosphate buffered saline (PBS). […] After the incubation period 50 μl of 1N NaOH was added to each well to develop the colour. The plates were then read at 405 nm (reference 620 nm) on an ELISA plate-reader. […] All results are the cell survival means ±S.D. from a minimum of three experiments.

DLKP cell line = test: miniaturised in vitro colorimetric cell survival assay (acid phosphatase end-point), DLKP; assay type: cell-based, human
Protocol: as §1, with “On Day 2 the two drugs (i.e.” left out

COc1ccc2c(c1)c(CC(=O)O)c(C)n2C(=O)c1ccc(Cl)cc1 [Indomethacin, indomethacin]
% Adriamycin content at 0 h (DLKP-7 cells; cells loaded with adriamycin 0.5 μg/ml 2 h, indomethacin 10 μg/ml, piroxicam 20 μg/ml, 0 h): 100%
% Adriamycin content at 4 h (DLKP-7 cells; cells loaded with adriamycin 0.5 μg/ml 2 h, indomethacin 10 μg/ml, piroxicam 20 μg/ml, 4 h): 109 ± 4%
level of adriamycin within the treated cells (DLKP-7 cells; during the 4 hours of the experiment): remained constant during the 4 hours of the experiment
% cell survival (OAW42-SR cell line; vi) Indomethacin 0.625 μg/ml): 99.26 ± 3.7%
% cell survival (OAW42-SR cell line; vi) Indomethacin 1.25 μg/ml): 97.67 ± 1.3%
% cell survival (OAW42-SR cell line; vi) Indomethacin 2.5 μg/ml): 95.60 ± 3.3%

CC1=C(CC(=O)O)c2cc(F)ccc2/C1=C\c1ccc([S+](C)[O-])cc1 (stereo not drawn) [Sulindac, sulindac]
% cell survival (DLKP cell line; ii) Sulindac 1.5 μg/ml, alone or + Vincristine 1.0 ng/ml): 111.6 ± 9.7%
% cell survival (DLKP cell line; ii) Sulindac 3 μg/ml, alone or + Vincristine 1.0 ng/ml): 108.45 ± 10.6%
% cell survival (DLKP cell line; ii) Sulindac 6 μg/ml, alone or + Vincristine 1.0 ng/ml): 114.1 ± 3.9%
% cell survival (DLKP cell line; iii) Sulindac 1.5 μg/ml, alone or + VP-16 100 ng/ml): 95.07 ± 1.6%
% cell survival (DLKP cell line; iii) Sulindac 3 μg/ml, alone or + VP-16 100 ng/ml): 93.68 ± 2.0%
% cell survival (DLKP cell line; iii) Sulindac 6 μg/ml, alone or + VP-16 100 ng/ml): 90.75 ± 3.3%
% cell survival (DLKP cell line; iv) Sulindac 1.5 μg/ml, alone or + 5-FU 0.5 μg/ml): 99.70 ± 7.7%
% cell survival (DLKP cell line; iv) Sulindac 3 μg/ml, alone or + 5-FU 0.5 μg/ml): 98.79 ± 8.8%
% cell survival (DLKP cell line; iv) Sulindac 6 μg/ml, alone or + 5-FU 0.5 μg/ml): 93.61 ± 5.9%
% cell survival (DLKP cell line; vii) Sulindac 1.5 μg/ml, alone or + PAT 1.5 μg/ml): 96.51 ± 5.3%
% cell survival (DLKP cell line; vii) Sulindac 3.0 μg/ml, alone or + PAT 1.5 μg/ml): 99.99 ± 2.9%
% cell survival (DLKP cell line; vii) Sulindac 6.0 μg/ml, alone or + PAT 1.5 μg/ml): 94.23 ± 1.2%
